From publication PMC10426190 (Breast Cancer Research : BCR, 2023)

Columns and labels:
[1] = test system: ER + breast cancer cell lines; assay: Proliferation assay across ER-positive cell panel; format: cell-based, human; settings: 7 days
Description: (§1) Trypsinized cells were dispensed into 384-well plates in culture media and after overnight incubation cells were treated with compounds for 7 days. Cell viability was assessed using CellTiter-Glo (Promega) according to the manufacturer’s protocol and relative luminescence units (RLU) were measured using an Envision Multilabel Reader (Perkin Elmer). […] IC50 and Imax were analyzed with IDBS XLfit.
MCF7 cells were seeded in a 384-well plate and linear-dilution compounds were administrated in duplicate for each treatment. After incubation for 24 h, Cells in the assay pate were treated as described in methods. ERα levels were quantified by immunofluorescence assay. […] Data are given as mean ± SEM. b The maximal ERα degradation across an ER-positive cell panel was evaluated in an In-cell Western assay. Cells were dispended into 96-well plates and incubated for 24 h with compounds (100 nM) treatment. […] Cells were seeded in 384-well plates and treated with linear-dilution compounds for 7 days of incubation. Cell viability was assessed using CellTiter-Glo. Cell growth inhibition is presented as a percentage of CellTiterGlo activity relative to the vehicle control. […] WT (e) and ER. Y537S cells (f). […] Then cells in each well were collected and the targeting proteins in lysate supernatant were detected by WB

[2] = test system: MCF-7 Y537S cells; assay: Viability assay (CellTiter-Glo, 7 days), MCF-7 Y537S; format: cell-based, human
Description: as §1
(§2) Statistical and graphical presentations were performed using IDBS XLfit and GraphPad Prism 9. For cell proliferation assays, the IC50 was calculated by fitting a dose–response curve using a nonlinear regression model with a log(inhibitor) vs response curve fit. […] P-values < 0.05 were considered statistically significant.

[3] = test system: intracranial MCF-7 tumors; assay: Intracranial MCF-7 tumor model; format: in vivo, mouse
Description: Female NPG mice were used for the intracranial MCF-7 tumor model. Three days before tumor cell implantation, estrogen pellets (0.72 mg, 17β-Estradiol, 60-day release, Innovative Research of America, Sarasota, FL, USA) were implanted subcutaneously. Each mouse was intracranially injected with 2 × 10^6 MCF-7 (ATCC) cells. […] Survival of mice was evaluated until Day 60. Mice were euthanized with weight loss exceeding 20% or moribund. On Day 60, all the mice remaining alive were euthanized. Before euthanasia, the mice were perfused with 4% paraformaldehyde and the brain tissues were collected for H&E staining using A[…] (Leica, Wetzlar, Germany).
as §2

[4] = test system: MCF-7 subcutaneous tumors; assay: MCF-7 subcutaneous xenograft mouse model; format: in vivo; settings: MCF7 sc, 250 mg/kg subcutaneous once a week
Description: (§3) Female Balb/c nude mice were used for MCF-7 and T47D tumor subcutaneous xenograft studies. At least one day before tumor cell implantation, estrogen pellets (0.18 mg, 17β-Estradiol, 60-day release, Innovative Research of America, Sarasota, FL, USA) were implanted subcutaneously. Each mouse was subcutaneously injected with 1 × 10^7 MCF-7 (ECACC) or T47D cells in the right flank, and tumor growth was monitored. The long diameter (a) and the short diameter (b) of the tumor were measured using a caliper, and the tumor volume was calculated using the following formula: V = 0.5 × a × b^2. […] Tumor volumes were evaluated twice per week. Treatment tolerability was assessed by body weight measurements and frequent observation for clinical signs of treatment-related adverse effects.
as §2

[5] = test system: advanced HR + /HER2- breast cancer; settings: cited from earlier work
[6] = test system: T47D subcutaneous tumors; assay: T47D subcutaneous xenograft mouse model; format: in vivo; settings: T47D sc, 250 mg/kg subcutaneous once a week
Description: as §3, §2

[7] = test system: MCF-7 WT cells; assay: Viability assay (CellTiter-Glo, 7 days), MCF-7 WT; format: cell-based, human
Description: as §1, §2

[8] = test system: MCF7 ESR1 D538G cells; assay: Viability assay (CellTiter-Glo, 7 days), MCF7 D538G; format: cell-based, human; settings: MCF-8 D538G
Description: as §1, §2

CC/C(=C(\c1ccc(O)cc1)c1ccc(OCCN(C)C)cc1)c1ccccc1 [4-OH-tamoxifen]
anti-proliferation potency in ER + cell panel [1]: less potent than all tested SERDs

C[C@]12CC[C@@H]3c4ccc(O)cc4C[C@@H](CCCCCCCCC[S+]([O-])CCCC(F)(F)C(F)(F)F)[C@H]3[C@@H]1CC[C@@H]2O (stereo partly shown) [Fulvestrant]
Viability assay Emax [% Ful.] [2]: 95.49 % Ful. | Viability assay Emax [% Veh.] [2]: 65.05 % Veh. | IC50 ([2]; Homo sapiens, MCF7, 168 h): 16.3 nM | median survival time ([3]; 250 mg/kg subcutaneous once a week): 27 days | tumor cell infiltration in brain tissues (H&E) ([3]; Fulvestrant 250 mg/kg, SCR-6852 3 mg/kg): significant tumor cells infiltration | TGI [4]: 28.84% | median OS [5]: 29.7 months | PFS ([5]; progressed on prior ET ref 45): 4.6 months | TGI [6]: 48.35% | Viability assay Emax [% Ful.] [7]: 97.88 % Ful. | Viability assay Emax [% Veh.] [7]: 49.60 % Veh. | IC50 ([7]; Homo sapiens, MCF7, 168 h): 0.4 nM | IC50 ([8]; Homo sapiens, MCF7, 168 h): 11.1 nM | Viability assay Emax [% Ful.] [8]: 106.1 % Ful. | Viability assay Emax [% Veh.] [8]: 68.57 % Veh.
